According to patent US20080004274A1, “Novel biaromatic compounds that modulate PPAR type receptors and cosmetic/pharmaceutical compositions comprised thereof” (GALDERMA RESEARCH & DEVELOPMENT, priority 2004, published 2008):

Experiments:
Type in all cases: cell-based
[1] = biological target: T1, PPARα (Homo sapiens, UniProt Q07869); experiment: Cross-curve PPAR transactivation test, PPARα; conditions: HeLN cells, stable transfectants ERE-βGlob-Luc-SV-Neo and Gal-hPPARα; luciferase; cross curves against reference agonist, Schild regression; n.a. means not active; read-out: PPAR alpha Kd app
T1 construct: the reporter is ERE-βGlob-Luc
T1 sequence (Q07869 200-468 limits assumed): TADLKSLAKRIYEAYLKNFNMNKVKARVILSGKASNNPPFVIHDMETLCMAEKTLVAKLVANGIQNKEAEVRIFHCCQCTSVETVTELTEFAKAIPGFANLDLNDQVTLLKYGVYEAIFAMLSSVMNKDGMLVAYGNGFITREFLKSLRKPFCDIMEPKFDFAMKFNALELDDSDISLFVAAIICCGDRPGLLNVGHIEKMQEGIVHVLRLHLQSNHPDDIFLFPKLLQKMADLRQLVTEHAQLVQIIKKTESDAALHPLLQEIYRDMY
Protocol: (§1) The activation of the receptors with an agonist (activator) in HeLN cells leads to the expression of a reporter gene, luciferase, which, in the presence of a substrate, generates light. The modulation of the receptors is measured by quantifying the luminescence produced after incubating the cells in the presence of a reference agonist. The ligands displace the agonist from its site. The measurement of the activity is performed by quantifying the light produced. This measurement makes it possible to determine the modulatory activity of the compounds according to the invention by determining the constant that is the affinity of the molecule for the receptor. Since this value can fluctuate depending on the basal activity and the expression of the receptor, it is referred to as Kd apparent (KdApp in nM).
(§2) To determine this constant, “cross curves” of the test product against a reference agonist are produced in a 96-well plate: 10 concentrations of the test product plus a concentration 0 are arranged in a line, and 7 concentrations of the agonist plus a concentration 0 are arranged in a column. This is 88 measurement points for 1 product and 1 receptor. The remaining 8 wells are used for repeatability controls.
(§3) Measurements are also taken for total agonist controls with the same products.
(§4) The HeLN cell lines used are stable transfectants containing the plasmids ERE-βGlob-Luc-SV-Neo (reporter gene) and PPAR (α, δ, γ) Gal-hPPAR. These cells are inoculated into 96-well plates at a rate of 10 000 cells per well in 100 μl of DMEM medium without phenol red and supplemented with 10% of defatted calf serum. The plates are then incubated at 37° C. and 7% CO2 for 16 hours.
(§5) The various dilutions of the test products and of the reference ligand are added at a rate of 5 μl per well. The plates are then incubated for 18 hours at 37° C. and 7% CO2. The culture medium is removed by turning over and 100 μl of a 1:1 PBS/luciferin mixture are added to each well. After 5 minutes, the plates are read by the luminescence detector.

[2] = biological target: T2, PPARδ (Homo sapiens, UniProt Q03181); experiment: Cross-curve PPAR transactivation test, PPARδ; conditions: HeLN cells, stable transfectants ERE-βGlob-Luc-SV-Neo and Gal-hPPARδ; luciferase; cross curves against reference agonist, Schild regression; n.a. means not active; read-out: PPARs delta Kd app
T2 construct: the reporter is ERE-βGlob-Luc
T2 sequence (Q03181 171-441 limits assumed): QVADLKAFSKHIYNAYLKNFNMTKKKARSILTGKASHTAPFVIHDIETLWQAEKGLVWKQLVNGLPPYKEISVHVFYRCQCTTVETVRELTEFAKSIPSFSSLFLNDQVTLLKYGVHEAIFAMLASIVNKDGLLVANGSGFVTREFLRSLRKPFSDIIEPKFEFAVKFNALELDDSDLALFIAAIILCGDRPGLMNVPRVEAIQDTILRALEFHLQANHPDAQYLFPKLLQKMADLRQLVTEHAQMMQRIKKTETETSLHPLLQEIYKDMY
Protocol: as §1, §2, §3, §4, §5

[3] = biological target: T3, PPARγ (Homo sapiens, UniProt P37231); experiment: Cross-curve PPAR transactivation test, PPARγ; conditions: HeLN cells, stable transfectants ERE-βGlob-Luc-SV-Neo and Gal-hPPARγ; luciferase; cross curves against reference agonist, Schild regression; n.a. means not active; read-out: PPAR gamma Kd app
T3 construct: the reporter is ERE-βGlob-Luc
T3 sequence (P37231 238-505 limits assumed): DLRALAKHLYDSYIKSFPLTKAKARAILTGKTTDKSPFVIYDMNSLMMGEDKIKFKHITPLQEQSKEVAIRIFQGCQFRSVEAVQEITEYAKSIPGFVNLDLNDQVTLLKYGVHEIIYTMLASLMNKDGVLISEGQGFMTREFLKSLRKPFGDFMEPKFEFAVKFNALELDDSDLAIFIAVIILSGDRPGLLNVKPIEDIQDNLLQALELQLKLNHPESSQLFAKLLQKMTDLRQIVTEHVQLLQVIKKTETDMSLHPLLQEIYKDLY
Protocol: as §1, §2, §3, §4, §5

CCCCN1C(=O)/C(=N\NC(=O)Nc2cccc(F)c2)c2cc(SCCc3ccc(C(=O)O)cc3)ccc21 [Example 18, 4-{2-[3-((3-fluoroanilinocarbonyl)hydrazono)-2-oxo-1-butyl-2,3-dihydro-1H-indol-5-ylsulfanyl]ethyl}benzoic acid] gave a Kd [1] of 2000 nM, a Kd [2] of 250 nM and a Kd [3] of 500 nM.
In the case of CCCCCCCN1C(=O)C(=NNC(=O)Nc2ccccc2Cl)c2cc(SCCc3ccc(C(=O)O)cc3)ccc21 [Example 22, 4-{2-[3((2-chloroanilinocarbonyl)hydrazono)-2-oxo-1-heptyl-2,3-dihydro-1H-indol-5-ylsulfanyl]ethyl}benzoic acid], the Kd [1] is reported as 2000 nM, the Kd [2] is reported as 60 nM and the Kd [3] is reported as 1000 nM.
In the case of COC(=O)c1ccc(CCSc2ccc3c(c2)/C(=N\NC(=O)Nc2cccc(F)c2)C(=O)N3CCc2ccccc2)cc1 [Example 17, methyl 4-{2-[3-((3-fluoroanilinocarbonyl)hydrazono)-2-oxo-1-phenethyl-2,3-dihydro-1H-indol-5-ylsulfanyl]ethyl}benzoate], the Kd [1] is reported as 250 nM and the Kd [3] is reported as 1000 nM.
With CCCCCCN1C(=O)/C(=N/NC(=O)Nc2ccccc2)c2cc(SCCCc3ccc(C(=O)O)cc3)ccc21 [Example 62, 4-[3-(3-((anilinocarbonyl)hydrazono)-2-oxo-1-hexyl-2,3-dihydro-1H-indol-5-ylsulfanyl)propyl]benzoic acid] the Kd [2] was 500 nM and the Kd [3] was 4000 nM.
CCCCN1C(=O)/C(=N/NC(=O)Nc2ccccc2)c2cc(SCCc3ccc(C(=O)O)cc3)ccc21 [Example 14, 4-{2-[3-((anilinocarbonyl)hydrazono)-2-oxo-1-butyl-2,3-dihydro-1H-indol-5-ylsulfanyl]ethyl}benzoic acid] gave a Kd [1] of 2000 nM, a Kd [2] of 120 nM and a Kd [3] of 1000 nM.
CCCCCCN1C(=O)/C(=N/NC(=O)Nc2ccc(F)cc2)c2cc(SCCCc3ccc(C(=O)O)cc3)ccc21 [Example 74, 4-[3-(3-((4-fluoroanilinocarbonyl)hydrazono)-2-oxo-1-hexyl-2,3-dihydro-1H-indol-5-ylsulfanyl)propyl]benzoic acid] was tested, and the Kd [1] was 4000 nM, the Kd [2] was 250 nM and the Kd [3] was 4000 nM.
Work on CCCCCCCN1C(=O)/C(=N\NC(=O)Nc2cccc(C(F)(F)F)c2)c2cc(SCCc3ccc(C(=O)O)cc3)ccc21 [Example 20, 4-{2-[3-((3-trifluoromethylanilinocarbonyl)hydrazono)-2-oxo-1-heptyl-2,3-dihydro-1H-indol-5-ylsulfanyl]ethyl}benzoic acid] yielded a Kd [1] of 2000 nM, a Kd [2] of 500 nM and a Kd [3] of 1000 nM.
O=C(N/N=C1/C(=O)N(CCc2ccccc2)c2ccc(SCCc3ccc(C(=O)O)cc3)cc21)Nc1ccc(C(F)(F)F)cc1Cl [Example 35, 4-{2-[3((2-chloro-4-trifluoromethylanilinocarbonyl)hydrazono)-2-oxo-1-phenethyl-2,3-dihydro-1H-indol-5-ylsulfanyl]ethyl}benzoic acid] showed a Kd [1] of 8000 nM, a Kd [2] of 500 nM and a Kd [3] of 250 nM.
CCCCCCCN1C(=O)/C(=N\NC(=O)Nc2ccccc2Cl)c2cc(SCCc3ccc(C(=O)O)cc3)ccc21 [Example 84, 4-{2-[3-((2-chloroanilino)carbonylhydrazono)-2-oxo-1-heptyl-2,3-dihydro-1H-indol-5-ylsulfanyl]ethyl}benzoic acid] gave a Kd [1] of 500 nM, a Kd [2] of 30 nM and a Kd [3] of 1000 nM.
O=C(N/N=C1\C(=O)N(CCc2ccccc2)c2ccc(SCCc3ccc(C(=O)O)cc3)cc21)Nc1ccccc1 [Example 16, 4-{2-[3-((anilinocarbonyl)hydrazono)-2-oxo-1-phenethyl-2,3-dihydro-1H-indol-5-ylsulfanyl]ethyl}benzoic acid] showed a Kd [1] of 2000 nM, a Kd [2] of 4000 nM and a Kd [3] of 500 nM.
